{"source": "paper PMC4527344", "about": "(Tetrahedron letters, 2015)", "system": "M. tuberculosis"}
{"compound": "CCOC(=O)CSc1nc(N)c2c3c(sc2n1)CC(C(C)(C)C)CC3", "note": "(stereo not shown) [CD117]", "values": [{"measurement": "CD117-resistant mutants obtained", "value": "unable to obtain CD117-resistant mutants"}]}
